Where a name gives a salt, the structure may show the parent alone.
These molecules were tested against IRAK4 (Homo sapiens (Human), UniProt Q9NWZ3) (assay: IRAK4 Kinase Assay (IMAP fluorescence polarization)). Settings: 0.5 nM GST tagged IRAK4, 100 μM ATP, 30 minutes at 25° C., IMAP FP.
Chain of IRAK4 (Q9NWZ3 whole entry): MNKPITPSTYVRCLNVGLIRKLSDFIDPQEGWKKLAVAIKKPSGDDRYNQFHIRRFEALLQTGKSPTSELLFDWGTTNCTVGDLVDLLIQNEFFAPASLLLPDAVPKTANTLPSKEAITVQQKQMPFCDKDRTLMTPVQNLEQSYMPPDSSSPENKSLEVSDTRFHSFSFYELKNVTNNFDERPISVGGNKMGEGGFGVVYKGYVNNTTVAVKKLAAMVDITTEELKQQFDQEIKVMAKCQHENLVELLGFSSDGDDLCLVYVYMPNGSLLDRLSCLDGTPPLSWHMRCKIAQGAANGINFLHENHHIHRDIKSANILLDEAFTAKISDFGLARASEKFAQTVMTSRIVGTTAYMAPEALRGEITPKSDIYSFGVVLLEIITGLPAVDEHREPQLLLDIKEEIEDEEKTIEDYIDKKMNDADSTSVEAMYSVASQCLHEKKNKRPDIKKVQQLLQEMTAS
Format: biochemical
Procedure: The kinase activity of IRAK4 is determined by its ability to catalyze the phosphorylation of a fluorescent polypeptide substrate. The extent of phosphorylation is measured using the IMAP technology (Molecular Devices) where the phosphorylated fluorescent substrate binds to the large M (III)-based nanoparticles which reduces the rotational speed of the substrate and thus increases its fluorescent polarization (FP).
20 μL reaction mixture contains 10 mM TriHCl, pH 7.2, 0.5 nM GST tagged IRAK4 (SignalChem), 100 nM fluorescent peptide substrate (RP7030, Molecular Devices), 100 μM ATP, 1 mM DDT, 1 mM MgCl2, and 0.01% Tween 20. The reaction is initiated by the addition of ATP. After incubation for 30 minutes at 25° C., 60 μL of Progressive IMAP Reagent (Molecular Devices) is added to stop the reaction. Change in RP7030's FP is determined by a FP reader (Analyst HT, LJL BioSystems).
For Cn1cc(NC(=O)c2ccc3ccc(N4C[C@H]5CNC[C@@H]4C5)nn23)c(C(F)(F)F)n1 [Example 123, 2-[(1S,5R)-(1R,5S)-3,6-diazabicyclo[3.2.1]oct-6-yl]-N-[1-methyl-3-(trifluoromethyl)-1H-pyrazol-4-yl]pyrrolo[1,2-b]pyridazine-7-carboxamide], the IC50 was 114 nM. For Cn1cc(NC(=O)c2ccc3ccc(N[C@@H]4CCCC(F)(F)[C@@H]4N)nn23)c(Cl)n1 [Example 48, 2-{[(1R,2R)-2-amino-3,3-difluoro-cyclohexyl]amino}-N-(3-chloro-1-methyl-1H-pyrazol-4-yl)pyrrolo[1,2-b]pyridazine-7-carboxamide acetate], the IC50 was 138 nM. With O=C(Nc1ccccc1C(F)(F)F)c1ccc2ccc(N3CCCNCC3)nn12 [Example 111, 2-(1,4-Diazepan-1-yl)-N-(2-(trifluoromethyl)phenyl)pyrrolo[1,2-b]pyridazine-7-carboxamide] the IC50 was 1420 nM. Molecule Cn1cc(NC(=O)c2ccc3ccc(N4CC5CCC4CN5)nn23)c(Cl)n1 (centres unmarked) [Example 26, N-(3-chloro-1-methyl-1H-pyrazol-4-yl)-2-(2,5-diazabicyclo[2.2.2]oct-2-yl)pyrrolo[1,2-b]pyridazine-7-carboxamide trifluoroacetate] has an IC50 of 28 nM. Cn1cc(NC(=O)c2ccc3ccc(N4CCC[C@@H](N)C4)nn23)c(C(F)F)n1 [Example 13, 2-[(3R)-3-aminopiperidin-1-yl]-N-[3-(difluoromethyl)-1-methyl-1H-pyrazol-4-yl]pyrrolo[1,2-b]pyridazine-7-carboxamide trifluoroacetate] showed an IC50 of 0.5 nM. For N#Cc1sccc1NC(=O)c1ccc2ccc(N3C[C@@H]4CC[C@H]3CN4)nn12 (single isomer, unassigned) [Example 80, N-(2-cyanothiophen-3-yl)-2-[(1S,4S)- or (1R,4R)-2,5-diazabicyclo[2.2.2]oct-2-yl]pyrrolo[1,2-b]pyridazine-7-carboxamide formate], the IC50 was 103 nM. For Cn1cc(NC(=O)c2ccc3ccc(N4CC5CCC(C4)N5)nn23)c(C(F)(F)F)n1 [Example 47, 2-(3,8-diazabicyclo[3.2.1]oct-3-yl)-N-[1-methyl-3-(trifluoromethyl)-1H-pyrazol-4-yl]pyrrolo[1,2-b]pyridazine-7-carboxamide trifluoroacetate], the IC50 was 9 nM. Cn1cc(NC(=O)c2ccc3ccc(N[C@@H]4CCCC(F)(F)[C@@H]4N)nn23)c(C#N)n1 [Example 52, 2-{[(1R,2R)-2-amino-3,3-difluoro-cyclohexyl]amino}-N-(3-cyano-1-methyl-1H-pyrazol-4-yl)pyrrolo[1,2-b]pyridazine-7-carboxamide trifluoroacetate] showed an IC50 of 43 nM. Cn1cc(NC(=O)c2ccc3ccc(N4C[C@@H]5CN[C@@H](C5)C4)nn23)c(C(F)F)n1 (single isomer, unassigned) [Example 50, 2-[(1S,5S)- or (1R,5R)-3,6-diazabicyclo[3.2.1]oct-3-yl]-N-[3-(difluoromethyl)-1-methyl-1H-pyrazol-4-yl]pyrrolo[1,2-b]pyridazine-7-carboxamide] was tested, and the IC50 was 4 nM. Molecule N#Cc1sccc1NC(=O)c1ccc2ccc(N[C@@H]3CCCC[C@@H]3N)nn12 [Example 75, 2-{[(1R,2S)-2-aminocyclohexyl]amino}-N-(2-cyanothiophen-3-yl)pyrrolo[1,2-b]pyridazine-7-carboxamide trifluoroacetate] has an IC50 of 2 nM. Molecule Cn1cc(NC(=O)c2ccc3ccc(N4CC5CCC4CN5)nn23)c(Br)n1 (centres unmarked) [Example 27, N-(3-bromo-1-methyl-1H-pyrazol-4-yl)-2-(2,5-diazabicyclo[2.2.2]oct-2-yl)pyrrolo[1,2-b]pyridazine-7-carboxamide trifluoroacetate] has an IC50 of 24 nM. In the case of O=C(Nc1ccsc1Br)c1ccc2ccc(N3C[C@@H]4CC[C@H]3CN4)nn12 (single isomer, unassigned) [Example 78, N-(2-bromothiophen-3-yl)-2-[(1S,4S)- or (1R,4R)-2,5-diazabicyclo[2.2.2]oct-2-yl]pyrrolo[1,2-b]pyridazine-7-carboxamide trifluoroacetate], the IC50 is reported as 697 nM. For O=C(Nc1ccsc1C(F)(F)F)c1ccc2ccc(N3C[C@H]4CC[C@@H]3CN4)nn12 (single isomer, unassigned) [Example 114, 2-[(1S,4S)- or (1R,4R)-2,5-diazabicyclo[2.2.2]oct-2-yl]-N-[2-(trifluoromethyl)thiophen-3-yl]pyrrolo[1,2-b]pyridazine-7-carboxamide trifluoroacetate], the IC50 was 1770 nM. For O=C(Nc1ccsc1C(F)(F)F)c1ccc2ccc(N3CCCNCC3)nn12 [Example 115, 2-(1,4-diazepan-1-yl)-N-[2-(trifluoromethyl)thiophen-3-yl]pyrrolo[1,2-b]pyridazine-7-carboxamide trifluoroacetate], the IC50 was 2020 nM. Cn1cc(NC(=O)c2ccc3ccc(N[C@@H]4CCCC[C@@H]4N)nn23)c(C#N)n1 [Example 29, 2-{[(1R,2S)-2-aminocyclohexyl]amino}-N-(3-cyano-1-methyl-1H-pyrazol-4-yl)pyrrolo[1,2-b]pyridazine-7-carboxamide trifluoroacetate] gave an IC50 of 0.7 nM. In the case of O=C(Nc1cscc1Cl)c1ccc2ccc(N3C[C@H]4CC[C@@H]3CN4)nn12 (single isomer, unassigned) [Example 84, N-(4-chlorothiophen-3-yl)-2-[(1S,4S)- or (1R,4R)-2,5-diazabicyclo[2.2.2]oct-2-yl]pyrrolo[1,2-b]pyridazine-7-carboxamide trifluoroacetate], the IC50 is reported as 126 nM. N[C@H]1CCCC[C@H]1Nc1ccc2ccc(C(=O)Nc3ccccc3C(F)F)n2n1 [Example 112, 2-{[(1R,2S)-2-aminocyclohexyl]amino}-N-[2-(difluoromethyl)phenyl]pyrrolo[1,2-b]pyridazine-7-carboxamide trifluoroacetate] was tested, and the IC50 was 472 nM. N#Cc1ccccc1NC(=O)c1ccc2ccc(N[C@H]3CCCCNC3)nn12 (single isomer, unassigned) [Example 109, 2-[(3R)- or (3S)-azepan-3-ylamino]-N-(2-cyanophenyl)pyrrolo [1,2-b]pyridazine-7-carboxamide trifluoroacetate] showed an IC50 of 7 nM. Cn1cc(NC(=O)c2ccc3ccc(N4C[C@H]5CC[C@@H]4CN5)nn23)c(C(F)F)n1 (single isomer, unassigned) [Example 38, 2-[(1S,4S)- or (1R,4R)-2,5-diazabicyclo[2.2.2]oct-2-yl]-N-[3-(difluoromethyl)-1-methyl-1H-pyrazol-4-yl]pyrrolo[1,2-b]pyridazine-7-carboxamide trifluoroacetate] gave an IC50 of 2 nM. With O=C(Nc1cscc1Br)c1ccc2ccc(N3CCCNCC3)nn12 [Example 60, N-(4-bromothiophen-3-yl)-2-(1,4-diazepan-1-yl)pyrrolo[1,2-b]pyridazine-7-carboxamide trifluoroacetate] the IC50 was 548 nM. N[C@@H]1[C@H](Nc2ccc3ccc(C(=O)Nc4ccccc4Cl)n3n2)CCCC1(F)F [Example 92, 2-{[(1R,2R)-2-amino-3,3-difluoro-cyclohexyl]amino}-N-(2-chlorophenyl)pyrrolo[1,2-b]pyridazine-7-carboxamide trifluoroacetate] showed an IC50 of 2060 nM. N[C@H]1CCCC[C@H]1Nc1ccc2ccc(C(=O)Nc3ccsc3Br)n2n1 [Example 77, 2-{[(1R,2S)-2-aminocyclohexyl]amino}-N-(2-bromothiophen-3-yl)pyrrolo[1,2-b]pyridazine-7-carboxamide trifluoroacetate] showed an IC50 of 11 nM. Cn1cc(NC(=O)c2ccc3ccc(N4CCC[C@@H](N)C4)nn23)c(C(F)(F)F)n1 [Example 12, 2-[(3R)-3-aminopiperidin-1-yl]-N-[1-methyl-3-(trifluoromethyl)-1H-pyrazol-4-yl]pyrrolo[1,2-b]pyridazine-7-carboxamide trifluoroacetate] was tested, and the IC50 was 0.5 nM. Work on N#Cc1cscc1NC(=O)c1ccc2ccc(N[C@@H]3CCCC(F)(F)[C@@H]3N)nn12 [Example 89, 2-{[(1R,2R)-2-amino-3,3-difluoro-cyclohexyl]amino}-N-(4-cyanothiophen-3-yl)pyrrolo[1,2-b]pyridazine-7-carboxamide trifluoroacetate] yielded an IC50 of 342 nM. In the case of Cn1cc(NC(=O)c2ccc3ccc(N[C@@H]4CCCC[C@@H]4N)nn23)c(C(F)F)n1 [Example 19, 2-{[(1R,2S)-2-aminocyclo-hexyl]amino}-N-[3-(difluoromethyl)-1-methyl-1H-pyrazol-4-yl]pyrrolo[1,2-b]pyridazine-7-carboxamide trifluoroacetate], the IC50 is reported as 1 nM. For O=C(Nc1ccccc1Br)c1ccc2ccc(N[C@@H]3CCCC[C@@H]3O)nn12 [Example 95, N-(2-bromophenyl)-2-{[(1R,2S)-2-hydroxycyclohexyl]amino}pyrrolo[1,2-b]pyridazine-7-carboxamide trifluoroacetate], the IC50 was 5860 nM. With N[C@H]1CCCC[C@H]1Nc1ccc2ccc(C(=O)Nc3ccsc3C(F)(F)F)n2n1 [Example 116, 2-{[1R,2S)-2-aminocyclohexyl] amino}-N-[2-(trifluoromethyl) thiophen-3-yl] pyrrolo[1,2-b]pyridazine-7-carboxamide trifluoroacetate] the IC50 was 221 nM. For Cn1cc(NC(=O)c2ccc3ccc(NC4CCCCNC4)nn23)c(C(F)F)n1 (centres unmarked) [Example 24, 2-(azepan-3-ylamino)-N-[3-(difluoromethyl)-1-methyl-1H-pyrazol-4-yl]pyrrolo[1,2-b]pyridazine-7-carboxamide trifluoroacetate], the IC50 was 2 nM. O=C(Nc1cscc1Cl)c1ccc2ccc(N3CCCNCC3)nn12 [Example 82, N-(4-chlorothiophen-3-yl)-2-(1,4-diazepan-1-yl)pyrrolo[1,2-b]pyridazine-7-carboxamide trifluoroacetate] showed an IC50 of 308 nM.
